Data published in patent US20250263733A1, “TARGETED GENE INTEGRATION IN PLANTS” (LIMAGRAIN EUROPE, priority 2021, published 2025).

Tested on: Ubi7DL gene
Experiment: NGS sequencing of transformed plantlets for mutations at the gRNA target site around the STOP codon of Ubi7DL
Parameters: species or system wheat var. Fielder
Conditions: 59 of 97 events; multiplex G1, G2, G3 guides with Cas9; all mutations generated with G3
Text: The strategy for GT at Ubi7DL is outlined in FIG. 1 and is based on the method of in planta GT (Fauser et al. 2012). A Cas9 gRNA (G3 SEQ ID NO: 8) that efficiently makes a DNA double strand break (DSB) around the STOP codon of the Ubi7DL gene was first identified by Agrobacterium-mediated transformation into wheat var. Fielder with a binary plasmid containing a TaU6-tRNA multiplex guide (SEQ ID NO: 10) expressing 3 guides G1 (SEQ ID NO: 6), G2 (SEQ ID NO: 7) and G3 (SEQ ID NO: 8) under control of promoter TaU6 (SEQ ID NO: 9), together with ZmUbi (SEQ ID NO: 11)-Cas9 (SEQ ID NO: 13)-nos terminator (SEQ ID NO: 12) and pActin-Bar-nos cassettes. These 3 target sites are around the STOP codon of Ubi7DL. Fielder wheat cultivar was transformed with these Agrobacterium strains essentially as described by WO2000/063398.

G3: Cas9 gRNA (SEQ ID NO: 8) making a double strand break around the STOP codon of Ubi7DL (guide CAGGAGCTTACTGGCCACCA; listed as DNA, chemistry not given here; listed as Triticum aestivum) [Line G3]
independent transformation events with mutations at the target site: 61%
